Data from the CheMixHub viscosity set.

Test: xn = mol fraction of the nth substance listed
Details: 101 kPa

COCCOCCOCCOCCOC + CCCC(C)O
viscosity [mPa·s]
Details	x1 = 0.0055	x1 = 0.0094	x1 = 0.0147	x1 = 0.0256	x1 = 0.0397	x1 = 0.0606	x1 = 0.0791	x1 = 0.0929	x1 = 0.1008
298.15 K	3.301	3.26	3.223	3.071	2.91	2.75	2.641	2.58	2.55
308.15 K	2.291	2.274	2.25	2.203	2.117	2.046	1.977	1.94	1.91
318.15 K	1.658	1.638	1.631	1.622	1.575	1.533	1.524	1.497	1.48

C=CC(=O)OCC + CCCCC(C)O
viscosity [mPa·s]
Details	298.15 K	308.15 K
x1 = 0.05505	3.659	2.636
x1 = 0.09982	3.336	2.426
x1 = 0.1555	2.973	2.188
x1 = 0.1998	2.712	2.015
x1 = 0.2555	2.417	1.817
x1 = 0.2999	2.205	1.673
x1 = 0.3554	1.965	1.509
x1 = 0.3999	1.793	1.389
x1 = 0.4555	1.598	1.253
x1 = 0.4999	1.458	1.154
x1 = 0.5556	1.299	1.04
x1 = 0.5999	1.185	0.958
x1 = 0.6554	1.056	0.864
x1 = 0.6995	0.964	0.797
x1 = 0.7554	0.859	0.718
x1 = 0.7999	0.783	0.661
x1 = 0.8555	0.698	0.596
x1 = 0.8999	0.637	0.549
x1 = 0.9555	0.568	0.495

CCc1ccccc1 + CCCCCC
viscosity [mPa·s]
Details	x2 = 0.14	x2 = 0.247	x2 = 0.337	x2 = 0.486	x2 = 0.641	x2 = 0.731
298.15 K	0.56	0.51	0.47	0.416	–	0.339
308.15 K	0.499	0.454	0.421	0.371	0.326	0.302
323.15 K	0.426	0.39	0.363	0.321	0.283	0.263

COC(C)(C)C + CCCCCC
303.15 K
Details	viscosity [mPa·s]
x1 = 0.1579	0.314
x1 = 0.2829	0.318
x1 = 0.3671	0.321
x1 = 0.4436	0.323
x1 = 0.5404	0.327
x1 = 0.604	0.33
x1 = 0.7122	0.335
x1 = 0.8674	0.342
